Results from patent publication EP4741395A1, “NOVEL COMPOUND SENSITIVE TO NITROGEN MONOXIDE AND PHARMACEUTICAL COMPOSITION COMPRISING SAME” (Omniamed Co. Ltd, priority 2023, dated 2025).

Legend:
IFN-γ = IFN-γ reduction activity in Concanavalin A-treated splenocytes (quantitative ELISA); assay type: cell-based, C57BL/6 mouse; conditions: Mus musculus, Splenocyte, Concanavalin A 5 µg/mL, 72 hours, read-out: IFN-γ Reduction Activity (%) (Mean±SD)
Description: (§1) A spleen was isolated from an 8-week-old C57BL/6 mouse, and splenocytes were isolated using a physical method.
(§2) The separated splenocytes were diluted to a concentration of 5×10^6 cells/mL in a RPMI 1640 medium including 10% FBS, 100 U/mL of penicillin and 100 µg/mL of streptomycin, and the diluted splenocytes were dispensed at 500 µL/well into a 48-well plate and 100 µL/well into a 96-well plate, and cultured for 72 hours in an incubator. The splenocytes were treated with Concanavalin A (5 µg/mL) when dispensed to induce an immune response, and herein, […] of the pharmaceutical composition including the compound according to each of the Examples was also added thereto. After 72 hours, the supernatant was collected, and the level of remaining NO was checked through a Griess assay, and calculated by the following Equation 4.
NO is one of important inflammatory mediators, and may increase the level of inflammatory cytokine. Concanavalin A (5 µg/mL), which induces an immune response in splenocytes, and the compound of each of Examples were treated in a concentration-dependent manner to check whether the level of IFN-γ, a representative inflammatory cytokine, was reduced. The supernatant was collected 72 hours after the treatment, and analyzed using a quantitative enzyme-linked immunosorbent assay (Quantitative-ELISA).

JAK 3 = biological target: T1, JAK 3 (Homo sapiens, UniProt P52333); experiment: JAK Human TK kinase enzymatic radiometric assay (Eurofins), JAK 3; assay type: biochemical; set-up: unit not given here; conditions: value close to 100 indicates low JAK activity of the compound
T1 construct: purchased Eurofins Scientific (assay service)
T1 sequence (P52333 1-1124): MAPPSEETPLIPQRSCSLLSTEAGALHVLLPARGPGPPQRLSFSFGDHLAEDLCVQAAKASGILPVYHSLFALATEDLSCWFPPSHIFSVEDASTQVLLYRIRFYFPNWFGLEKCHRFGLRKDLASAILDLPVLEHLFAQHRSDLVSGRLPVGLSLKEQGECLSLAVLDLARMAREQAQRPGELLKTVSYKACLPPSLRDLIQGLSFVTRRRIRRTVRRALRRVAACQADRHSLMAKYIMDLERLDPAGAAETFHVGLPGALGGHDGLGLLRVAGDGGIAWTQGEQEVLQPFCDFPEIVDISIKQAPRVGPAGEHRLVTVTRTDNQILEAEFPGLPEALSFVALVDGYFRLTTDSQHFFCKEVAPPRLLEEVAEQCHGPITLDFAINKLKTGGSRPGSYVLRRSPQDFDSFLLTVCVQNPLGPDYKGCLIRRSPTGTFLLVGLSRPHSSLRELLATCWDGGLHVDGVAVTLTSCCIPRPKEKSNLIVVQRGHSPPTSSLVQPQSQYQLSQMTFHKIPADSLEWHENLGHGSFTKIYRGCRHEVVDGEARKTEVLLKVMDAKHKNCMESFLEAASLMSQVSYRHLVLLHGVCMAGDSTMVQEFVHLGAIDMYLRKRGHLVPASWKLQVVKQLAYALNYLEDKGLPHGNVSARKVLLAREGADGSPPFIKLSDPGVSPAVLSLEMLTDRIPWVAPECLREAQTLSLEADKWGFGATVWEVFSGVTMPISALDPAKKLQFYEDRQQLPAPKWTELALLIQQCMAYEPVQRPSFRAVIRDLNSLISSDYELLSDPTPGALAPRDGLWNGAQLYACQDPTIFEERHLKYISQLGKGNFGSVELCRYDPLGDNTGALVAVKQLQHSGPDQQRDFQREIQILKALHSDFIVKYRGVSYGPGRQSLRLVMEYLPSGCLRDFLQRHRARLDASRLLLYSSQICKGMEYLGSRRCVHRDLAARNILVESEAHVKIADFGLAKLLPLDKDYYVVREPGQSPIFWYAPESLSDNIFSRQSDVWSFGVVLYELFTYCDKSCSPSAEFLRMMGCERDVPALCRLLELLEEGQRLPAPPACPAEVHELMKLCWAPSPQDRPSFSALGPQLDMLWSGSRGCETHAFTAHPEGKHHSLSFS
Excerpt: (§3) For the compounds of the Examples, JAK activity of each of the compounds was verified using the JAK Human TK Kinase Enzymatic Radiometric Kinase Profiler Assay service provided by Eurofins Scientific.
(§4) The activity was verified after inducing a reaction at the JAK 1, 2 and 3 active sites using radioactively labeled ATP.

splenocytes [1] = experiment: NO scavenging activity in Concanavalin A-treated splenocytes (Griess assay); assay type: cell-based, C57BL/6 mouse; conditions: Mus musculus, Splenocyte, Concanavalin A 5 µg/mL, 72 hours, read-out: NO Scavenging Activity (%) (Mean±SD)
Description: as §1, §2

[2] = Efficacy on collagen-induced rheumatoid arthritis (arthritis score); assay type: in vivo, DBA/1 male mice; conditions: FIG. 7
Description: (§5) The experimental animals were 30 8-week-old DBA/1 male mice. […] The number of normal mice was set to five in order to minimize the number of experimental animals. The group administered with Compound (1) consisted of 5 to 6 mice, a minimal number required to obtain statistically meaningful data given the limited amount of the drug.
(§6) In order to establish a rheumatoid arthritis model, 100 µL of a mixture solution in which 2 mg/mL of chick type II collagen and 1 mg/mL of Complete Freund's Adjuvant (CFA) were mixed in a ratio of 1:1 was administered intradermally to each of the mouse tails. After 19 days, 100 µL of an emulsion in which 2 mg/mL of chick type II collagen and Incomplete Freund's Adjuvant (IFA) were mixed in a ratio of 1:1 was administered intradermally to each of the mouse tails.
The test substances of Table 23 were administered orally every day according to the drug dosing period and dosing frequency. As for the rheumatoid arthritis score (arthritis score), the score of each of the four paws was quantified according to the criteria shown in the following Table 24, and the individual scores were summed to generate the final score.
as §5, with “31” for “30”, “(11)” for “(1)”, “5” for “5 to 6”, “drug. Each of the remaining groups consisted of 7 mice, with two extra mice added to account for experimental error.” for “drug.”
as §6
Oral administration was conducted daily according to the dose, dosing frequency and dosing period of Table 25. Based on the criteria shown in Table 24, rheumatoid arthritis score for the four paws were quantified and summed to generate the score.

Raw 264.7 cell line = experiment: NO scavenging activity in LPS-treated immune cells (Griess reagent); assay type: cell-based; conditions: Mus musculus, RAW264.7, Raw 264.7, LPS 500 ng/mL, 24 hours, read-out: NO Scavenging Activity (%) (Mean±SD)
JAK 1 = JAK 1 (Homo sapiens, UniProt P23458); experiment: JAK Human TK kinase enzymatic radiometric assay (Eurofins), JAK 1; conditions: value close to 100 indicates low JAK activity of the compound
splenocytes [3] = experiment: Inhibitory activity on cell proliferation in splenocytes (CCK-8 analysis); assay type: cell-based, C57BL/6 mouse; conditions: Mus musculus, Splenocyte, Concanavalin A 5 µg/mL, 72 hours, read-out: Inhibitory Activity on Cell Proliferation (%) (Mean±SD)
JAK 2 = biological target: T2, JAK 2 (Homo sapiens, UniProt O60674); experiment: JAK Human TK kinase enzymatic radiometric assay (Eurofins), JAK 2; assay type: biochemical; set-up: unit not given here; conditions: value close to 100 indicates low JAK activity of the compound
T2 construct: purchased Eurofins Scientific (assay service)
Excerpt: as §3, §4

IL-6 (Interleukin-6) = experiment: Inhibition of inflammatory cytokine secretion in LPS-treated immune cells (IL-6 sandwich ELISA); assay type: cell-based; conditions: Mus musculus, RAW264.7, Raw 264.7, LPS 500 ng/mL, 24 hours, read-out: IL-6 Reduction Activity (%) (Mean±SD)
Description: Raw 264.7 cell line was seeded in a 48-well plate at a density of 8×10^4 cells/well, and cultured at 37°C in a DMEM medium including 10% FBS, 100 U/mL of penicillin and 100 µg/mL of streptomycin.
The medium was cultured overnight, and then replaced with a fresh medium including 10 µM of the pharmaceutical composition sensitive to nitrogen monoxide including the compound of each of Examples 1 and 11 to 13 and 500 ng/mL of LPS, and the fresh medium was cultured again for another 24 hours.
Lastly, the supernatant was collected, and then the level of IL-6 (Interleukin-6) expression was analyzed using a Sandwich enzyme-linked immunosorbent assay (ELISA). Specifically, a standard solution and 50 µL of the diluted supernatant were introduced to each well of a well plate coated with an antibody specific to IL-6, and after binding IL-6 to the immobilized antibody, the well was washed with a washing buffer, followed by a reaction with HRP as a secondary antibody for 30 minutes at room temperature. The well was washed three times with a washing buffer, then color was developed using TMB (3,3', 5,5'-tetramethyl benzidine) as a substrate, and the reaction was stopped using 1 M sulfuric acid to measure the degree of color development at an absorbance of 450 nm.

T2 sequence (O60674 whole entry): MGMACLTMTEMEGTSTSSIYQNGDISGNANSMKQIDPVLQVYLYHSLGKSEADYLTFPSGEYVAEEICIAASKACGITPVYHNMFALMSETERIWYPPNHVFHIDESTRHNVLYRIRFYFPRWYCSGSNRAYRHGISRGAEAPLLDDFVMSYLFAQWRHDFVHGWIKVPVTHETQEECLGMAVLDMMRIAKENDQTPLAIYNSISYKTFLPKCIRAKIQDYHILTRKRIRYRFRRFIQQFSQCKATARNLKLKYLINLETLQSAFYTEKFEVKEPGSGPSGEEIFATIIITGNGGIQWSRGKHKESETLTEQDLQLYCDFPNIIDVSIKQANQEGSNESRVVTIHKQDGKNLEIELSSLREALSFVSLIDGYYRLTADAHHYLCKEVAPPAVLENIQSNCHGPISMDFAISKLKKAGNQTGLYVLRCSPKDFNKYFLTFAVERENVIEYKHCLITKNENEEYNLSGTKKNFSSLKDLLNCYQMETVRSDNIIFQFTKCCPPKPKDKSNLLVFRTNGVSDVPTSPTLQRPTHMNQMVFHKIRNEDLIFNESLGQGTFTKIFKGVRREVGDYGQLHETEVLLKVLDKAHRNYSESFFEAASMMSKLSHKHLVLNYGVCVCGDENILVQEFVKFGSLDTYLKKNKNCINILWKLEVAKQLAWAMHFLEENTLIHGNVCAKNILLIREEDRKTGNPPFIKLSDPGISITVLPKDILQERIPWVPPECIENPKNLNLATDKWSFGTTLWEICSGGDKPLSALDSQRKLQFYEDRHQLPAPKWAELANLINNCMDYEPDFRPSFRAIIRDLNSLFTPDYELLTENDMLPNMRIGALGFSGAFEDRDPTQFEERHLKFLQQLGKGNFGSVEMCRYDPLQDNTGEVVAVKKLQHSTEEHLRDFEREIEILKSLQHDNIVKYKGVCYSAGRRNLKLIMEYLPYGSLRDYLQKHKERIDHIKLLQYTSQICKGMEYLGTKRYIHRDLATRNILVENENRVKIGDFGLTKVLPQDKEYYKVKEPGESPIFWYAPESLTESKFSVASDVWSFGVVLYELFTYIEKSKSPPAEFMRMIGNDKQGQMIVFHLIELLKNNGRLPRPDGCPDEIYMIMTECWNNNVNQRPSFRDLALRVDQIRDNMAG
Chain of JAK 1 (P23458 whole entry): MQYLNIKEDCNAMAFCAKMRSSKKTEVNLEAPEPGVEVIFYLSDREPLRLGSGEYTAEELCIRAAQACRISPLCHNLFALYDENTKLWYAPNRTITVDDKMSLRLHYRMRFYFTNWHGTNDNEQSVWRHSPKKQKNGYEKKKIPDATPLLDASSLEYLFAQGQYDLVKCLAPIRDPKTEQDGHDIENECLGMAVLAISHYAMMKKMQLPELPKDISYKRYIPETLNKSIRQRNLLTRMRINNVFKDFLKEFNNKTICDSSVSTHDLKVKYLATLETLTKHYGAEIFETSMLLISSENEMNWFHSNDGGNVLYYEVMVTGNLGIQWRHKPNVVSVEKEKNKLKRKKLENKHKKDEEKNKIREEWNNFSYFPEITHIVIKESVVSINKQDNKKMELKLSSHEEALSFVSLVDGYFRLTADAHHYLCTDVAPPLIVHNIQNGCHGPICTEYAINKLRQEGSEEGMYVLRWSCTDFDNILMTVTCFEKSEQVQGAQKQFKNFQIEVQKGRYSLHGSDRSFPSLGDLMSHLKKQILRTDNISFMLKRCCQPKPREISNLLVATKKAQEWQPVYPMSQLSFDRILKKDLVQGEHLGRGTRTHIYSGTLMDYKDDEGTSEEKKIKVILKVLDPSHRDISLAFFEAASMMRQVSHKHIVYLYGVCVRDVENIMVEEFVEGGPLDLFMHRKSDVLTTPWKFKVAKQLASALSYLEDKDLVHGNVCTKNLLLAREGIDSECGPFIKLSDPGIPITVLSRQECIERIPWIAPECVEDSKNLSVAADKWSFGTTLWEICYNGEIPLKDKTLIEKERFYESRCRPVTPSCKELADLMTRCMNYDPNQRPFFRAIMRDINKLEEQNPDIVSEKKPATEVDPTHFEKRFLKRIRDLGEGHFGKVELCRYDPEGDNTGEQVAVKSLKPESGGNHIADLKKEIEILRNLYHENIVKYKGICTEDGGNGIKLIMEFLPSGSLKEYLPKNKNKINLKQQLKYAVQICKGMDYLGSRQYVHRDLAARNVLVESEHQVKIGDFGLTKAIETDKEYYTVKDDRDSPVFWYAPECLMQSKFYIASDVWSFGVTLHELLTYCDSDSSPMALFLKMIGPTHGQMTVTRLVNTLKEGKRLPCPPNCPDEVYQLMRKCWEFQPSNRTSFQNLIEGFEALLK

Row | JAK 3 Activity (JAK 3; 0.1 nM) | JAK 3 Activity (JAK 3; 1 nM) | JAK 3 Activity (JAK 3; 10 nM) | JAK 3 Activity (JAK 3; 100 nM) | JAK 1 Activity (JAK 1; 0.1 nM) | JAK 1 Activity (JAK 1; 1 nM) | JAK 1 Activity (JAK 1; 10 nM) | JAK 1 Activity (JAK 1; 100 nM) | JAK 2 Activity (JAK 2; 0.1 nM) | JAK 2 Activity (JAK 2; 1 nM) | JAK 2 Activity (JAK 2; 10 nM) | JAK 2 Activity (JAK 2; 100 nM) | Compound | activity at 10 µM (IFN-γ) [%] | activity at 10 µM (splenocytes [1]) [%] | rheumatoid arthritis-alleviating efficacy compared with tofacitinib ([2]; 20 mg/kg oral once daily (QD) vs tofacitinib 10 mg/kg BID, entire 40-day period) | rheumatoid arthritis-alleviating efficacy (arthritis score), statistics ([2]; 20 mg/kg oral once daily (QD)) | activity at 10 µM (Raw 264.7 cell line) [%] | inhibition at 10 µM (splenocytes [3]) [%] | activity at 10 µM (IL-6 (Interleukin-6)) [%]
1 | 103 | 103 | 98 | 94 | 108 | 103 | 105 | 101 | 91 | 99 | 89 | 98 | C[C@@H]1CCN(C(=O)CC#N)C[C@@H]1N(C)c1ncnc2c1ccn2C(=O)N(C(=O)Nc1ccccc1N)c1ccccc1N [Example 11, N-(2-aminophenyl)-N-((2-aminophenyl)carbamoyl)-4-(((3R,4R)-1-(2-cyanoacetyl)-4-methylpiperidin-3-yl)(methyl)amino)-7H-pyrrolo[2,3-d]pyrimidine-7-carboxamide] | 57.6 ± 15.5 | 67.7 ± 0.84 | alleviating efficacy comparable to that of tofacitinib | no statistical differences were verified | 48.7 ± 0.01 | 49.7 ± 3.78 | –
2 | 114 | 107 | 111 | 88 | 109 | 110 | 103 | 81 | 108 | 111 | 102 | 92 | Cc1ccc(NC(=O)N(C(=O)n2ccc3c(N(C)[C@H]4CN(C(=O)CC#N)CC[C@H]4C)ncnc32)c2ccc(C)cc2N)c(N)c1 [Example 12, N-(2-amino-4-methylphenyl)-N-((2-amino-4-methylphenyl)carbamoyl)-4-(((3R,4R)-1-(2-cyanoacetyl)-4-methylpiperidin-3-yl) (methyl)amino)-7H-pyrrolo[2,3-d]pyrimidine-7-carboxamide] | 97 ± 0.05 | 64.6 ± 3.65 | – | – | 31.7 ± 0.15 | 64 ± 6.17 | 61.7 ± 1.85
3 | 113 | 109 | 112 | 92 | 110 | 113 | 106 | 89 | 120 | 107 | 102 | 104 | COc1ccc(NC(=O)N(C(=O)n2ccc3c(N(C)[C@H]4CN(C(=O)CC#N)CC[C@H]4C)ncnc32)c2ccc(OC)cc2N)c(N)c1 [Example 13, N-(2-amino-4-methoxyphenyl)-N-((2-amino-4-methoxyphenyl)carbamoyl)-4-(((3R,4R)-1-(2-cyanoacetyl)-4-methylpiperidin-3-yl) (methyl)amino)-7H-pyrrolo[2,3-d]pyrimidine-7-carboxamide] | 89.7 ± 0.57 | 66.9 ± 5.06 | – | – | 34.7 ± 0.28 | 16.1 ± 2.7 | 63.1 ± 1.23
